Experimental findings from patent EP1862454A1, “Novel compounds, isomer thereof or pharmaceutically acceptable salts thereof as vanilloid receptor antagonist; and a pharmaceutical composition containing the same” (Amorepacific Corporation, priority 2006, dated 2007) are described below.

The structures appear in SMILES notation.

One assay concerns the target T1, vanilloid receptor (Rattus norvegicus, UniProt O35433).
T1 construct: DRG nerve cells from the primary culture of 2 days were equilibrated; endogenous in cells; host or cells: primary culture of dorsal root ganglion neurons from neonatal SD rats
Put plainly: 45Ca influx test in primary culture of neonatal rat DRG neurons, inhibition of the capsaicin response. The settings on record: DRG nerve cells; capsaicin 0.5 µM; 45Ca 10 µCi/ml; 10 mins at room temperature; read-out: Antagonist Calcium Uptake Test (IC50). The format is cell-based, SD rats. The method, then:
1) Separation of spinal dorsal root ganglia (DRG) in newborn rats and primary culture thereof
Neonatal (2-3 day old or younger than 2-3 day old) SD rats were put in ice for 5 minutes to anesthetize and disinfected with 70% ethanol. DRG of all part of spinal cord were dissected (Wood et al., 1988, J. Neurosci. 8, pp3208-3220) and collected in DME/F12 medium to which 1.2g/l sodium bicarbonate and 50mg/l gentamycin were added. The DRG were incubated sequentially at 37°C for 30 min in 200 U/ml collagenase and 2.5mg/ml trypsin, separately. The ganglia were washed twice with DME/F12 medium supplemented with 10% horse serum, triturated through a fire-polished Pasteur pipette, filtered through Nitex 80 membrane to obtain single cell suspension and the suspension was washed once more. This was subjected to centrifugation, then resuspended in cell culture medium at certain level of cell density. As the cell culture medium, DME/F12 medium supplemented with 10% horse serum was diluted with identical medium conditioned by C6 glioma cells 2 days on a confluent monolayer (1:1), and NGF (Nerve Growth Factor) was added to adjust 200ng/ml as final concentration. After the cells were grown for 2 days in medium where cytosine arabinoside (Ara-C, 100 µM) was added to kill dividing nonneuronal cells, medium was changed to one without Ara-C. The resuspended cells were plated at a density of 1500-2000 neurons/well onto Terasaki plates previously coated with 10 µg/ml poly-D-ornithine.
2) ^45 Ca influx experiments
DRG nerve cells from the primary culture of 2 days were equilibrated by washing 4 times with HEPES (10mM, pH 7.4)-buffered Ca ^2+, Mg^2+-free HBSS (H-HBSS). The solution in each well was removed from the individual well. Medium containing the test compound plus capsaicin (final concentration 0.5 µM) and ^45Ca (final concentration 10 µCi/ml) in H-HBSS was added to each well and incubated at room temperature for 10 mins. Terasaki plates were washed five times with H-HBSS and dried at room temperature. To each well, 0.3% SDS (10 µl) was added to elute ^45Ca. After the addition of scintillation cocktail into each well, the amount of ^45Ca influx into neuron was measured by counting radioactivity. Antagonistic activities of test compounds against vanilloid receptor were calculated as percent of the inhibition of maximal response of capsaicin at a concentration of 0.5 µM. […]

For the next assay, the system named is Male ICR mice. The assay can be described thus: Analgesic activity test: mouse writhing test induced with phenyl-p-quinone. The format is in vivo. The settings on record: writhes counted vs control group. The method, then:
2. Analgesic activity test: Mouse writhing test by inducing with phenyl-p-quinone
Male ICR mice (mean body weight 25g) were maintained in a controlled lighting environment (12 h on/ 12 h off) for experiment. Animals received an intraperitoneal injection of 0.3ml of the chemical irritant phenyl-p-quinone (dissolved in saline containing 5% ethanol to be a dose of 4.5mg/kg) and 6 mins later, the number of abdominal constrictions was counted in the subsequent 6 mins period. Animals (10 animals/group) received 0.2ml of test compounds solution in vehicle of ethanol/Tween 80/saline (10/10/80) intraperitoneally 30 min before the injection of phenyl-p-quinone. A reduction in the number of writhes responding to the test drug compound relative to the number responding in saline control group was considered to be indicative of an analgesic effect. Analgesic effect was calculated by % inhibition equation (% inhibition=(C-T)/C x 100), wherein C and T represent the number of writhes in control and compound-treated group, respectively (Table 2).
Background: Writhing tests count abdominal constrictions after an irritant is injected.

T1 sequence (O35433 whole entry): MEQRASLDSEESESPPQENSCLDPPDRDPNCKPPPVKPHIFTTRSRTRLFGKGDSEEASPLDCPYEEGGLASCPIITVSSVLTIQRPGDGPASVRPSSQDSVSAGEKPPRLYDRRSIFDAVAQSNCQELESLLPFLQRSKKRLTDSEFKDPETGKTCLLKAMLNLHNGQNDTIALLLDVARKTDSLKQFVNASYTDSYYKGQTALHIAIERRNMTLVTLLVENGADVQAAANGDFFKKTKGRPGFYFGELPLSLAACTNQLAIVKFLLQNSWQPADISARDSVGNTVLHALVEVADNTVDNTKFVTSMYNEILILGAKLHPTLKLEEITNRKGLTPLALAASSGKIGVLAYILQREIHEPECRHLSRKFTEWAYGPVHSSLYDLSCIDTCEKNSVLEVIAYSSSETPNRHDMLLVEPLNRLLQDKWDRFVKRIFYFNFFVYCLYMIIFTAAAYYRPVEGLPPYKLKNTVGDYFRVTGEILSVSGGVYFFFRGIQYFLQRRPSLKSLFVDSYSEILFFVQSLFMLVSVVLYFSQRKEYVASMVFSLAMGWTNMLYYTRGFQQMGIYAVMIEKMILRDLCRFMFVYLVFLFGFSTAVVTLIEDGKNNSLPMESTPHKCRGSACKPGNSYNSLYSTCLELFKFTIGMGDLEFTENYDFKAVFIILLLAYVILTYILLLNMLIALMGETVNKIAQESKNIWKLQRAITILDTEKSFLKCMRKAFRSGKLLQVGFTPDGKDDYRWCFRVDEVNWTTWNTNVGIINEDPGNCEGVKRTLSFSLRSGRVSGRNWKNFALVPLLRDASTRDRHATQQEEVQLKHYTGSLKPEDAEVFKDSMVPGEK

The IC50 is the concentration needed to halve the response being measured. Regarding `C=Cc1cc(C(C)NC(=S)NCc2ccc(C(C)(C)C)cc2)cc(F)c1NS(C)(=O)=O` (centres unmarked) [Example 6, N-(4-{1-[3-(4-t-butylbenzyl)thioureido]ethyl}-2-fluoro-6-vinyl-phenyl) methanesulfonamide], on vanilloid receptor, the IC50 came to 120 nM.

Turning to `C=Cc1cc(CNC(=S)NCc2ccc(C(C)(C)C)cc2)ccc1NS(C)(=O)=O` [Example 1, N-{4-[3-(4-t-butylbenzyl)thioureido-methyl]-2-vinyl-phenyl} methanesulfonamide], in the assay with Male ICR mice (Dose 0.3 mg/kg intraperitoneally 30 min before phenyl-p-quinone (4.5mg/kg)), the “Analgesic effect (%Inhibition)” value is on record as 93%. Moreover, the IC50 at vanilloid receptor is 54 nM.

Turning to `C=Cc1cc(CNC(=S)NCc2ccc(C(C)(C)C)cc2)cc(C(F)(F)F)c1NS(C)(=O)=O` [Example 2, N-{4-[3-(4-t-butylbenzyl)thioureido-methyl]-2-trifluoromethyl-6-vinyl-phenyl}methanesulfonamide], on vanilloid receptor, the IC50 was 330 nM.

`C=Cc1cc(CNC(=S)NCc2ccc(C(C)(C)C)cc2)cc(F)c1NS(C)(=O)=O` [Example 3, N-{4-[3-(4-t-butylbenzyl)thioureido-methyl]-2-fluoro-6-vinyl-phenyl}methanesulfonamide]: the “Analgesic effect (%Inhibition)” value in the assay with Male ICR mice (Dose 1 mg/kg intraperitoneally 30 min before phenyl-p-quinone (4.5mg/kg)) is listed as 57%. Besides, the IC50 on vanilloid receptor came to 35 nM.

Regarding `C=Cc1cc(CNC(=S)NCc2ccc(C(C)(C)C)cc2)cc(C)c1NS(C)(=O)=O` [Example 5, N-{4-[3-(4-t-butylbenzyl)thioureido-methyl]-2-methyl-6-vinyl-phenyl}methanesulfonamide], at vanilloid receptor, the IC50 is 190 nM.

On to `C=Cc1cc(CNC(=S)NCc2ccc(C(C)(C)C)cc2)cc(Cl)c1NS(C)(=O)=O` [Example 4, N-{4-[3-(4-t-butylbenzyl)thioureido-methyl]-2-chloro-6-vinyl-phenyl}methanesulfonamide], for which, on vanilloid receptor, the IC50 came out at 93 nM.
